Measurements from US12109190B2, “Urolithins as immune response enhancers” (Amazentis SA, priority 2018, dated 2024).

Legend:
[1] = system: haematopoietic stem cells (HSCs) and multipotent progenitor cells (MPPs); test: Flow cytometry of bone marrow haematopoietic progenitor cell populations from aged mice fed Urolithin A; type: in vivo; conditions: aged C57BL/6J mice, 50 mg/kg/day in diet, 34 weeks; for HSC population as % of total bone marrow cells and number of cells: FIG. 4, versus untreated aged animals, cell number p<0.05, 50 mg/kg/day
Protocol: To determine if Urolithin A treatment had any effects on stem cell populations, haematopoietic stem cells, (HSCs) and multipotent progenitor cells (MPPs) were isolated from aged C57BL/6J mice that received either a standard rodent diet or a diet containing Urolithin A mixed with food to reach a dosing of 50 mg/kg/day delivered to mice. Mice were treated with urolithin A starting at 16 months of age and received 34 weeks of treatment. At end of the treatment period mice were sacrificed and bone marrow collected from the femur and tibia bones. Single-cell suspensions were made following cell extraction from the bones after removal of muscle and connective tissue.
To determine the effects of Urolithin A treatment on the different progenitor cells of the haematopoietic system, the number and percentage of each progenitor cell type was determined using flow cytometry. Flow cytometry allowed the selection and quantification of cells with different patterns of protein expression on their cell surface. Using labeled monoclonal antibodies, it was possible to identify the different progenitor cell population based on their cell surface protein expression. To isolate the undifferentiated cells which would contain the progenitor population, bone marrow cells were stained with a cocktail of monoclonal antibodies against the cell surface proteins specific to the more differentiated cell types. The antibodies to these proteins, also known as lineage markers were CD3e (17A2), CD4 (GK1.5), CD8a (53.6.7), CD11b (M1/70), CD19 (1D3), Gr1 (RB6.8C5), Ter119 and NK1.1 (PK136), these were conjugated to Alexa 647 [Alexa Fluor 647 dye is a bright, far-red—fluorescent dye used as a label in, for example, fluorescence microscopy]. To discriminate the various lineage progenitor cell populations the isolated bone marrow cells were stained with monoclonal antibodies against the following progenitor cell surface protein markers containing the following labels CD34 (RAM 34)-FITC; CD135 (Flt3 A2F10)-PE; CD48 (HM48.1)-biotin+PE Texas Red Streptavidin; CD117 (ckit 2B8) PerCp-Cy5.5; Sca1 (D7)-PE-Cy7. Cell analysis of the stained cells was performed on a Becton Dickson Flow cytometer (Franklin Lake, NJ, USA) and collected data was analyzed using Flowjo™ software (an analysis platform for single-cell flow cytometry analysis). Bone marrow was isolated from three mice receiving Urolithin A treatment, and six control untreated mice.
To identify the different populations of haematopoietic progenitor cells present in the isolated bone marrow cells, the isolated bone marrow cells were selected based on their cell surface marker combinations. A so-called gating strategy was employed, in which a particular population of cells is selected (gated) based on the pattern of cell surface protein expression, and then this sub-selected population then is further examined for its cell surface protein expression. […] Uncommitted progenitor cells were examined by selecting cells that were negative for the cell surface proteins found on differentiated cells (lineage markers) described above (FIG. 2B). From this population of lineage negative cells, cells were selected that stained positive for the cells surface markers, CD117 (c-kit) and Sca1. This subpopulation of lineage negative, CD117 & Sca1 positive cells (LKS cells) contain the progenitor stem cells (FIG. 2C).
LKS cells can be further divided into four different progenitor cell types, HSC (LT-HSC), MPP 1 (ST-HSC), MPP2, and MPP3 or LMPP with decreasing levels of quiescence (FIG. 1B). The most quiescent and non-committed cells are the HSC cells. To differentiate between these cell populations in the LKS cells, Cells were examined for their expression of CD150 and CD48. The most primitive quiescent cell populations, HSC+MPP1, are positive for the cell surface marker for CD150 and negative for the cell surface marker CD48. […]

IL-10 / IL-12 (p40) = test: Plasma cytokines (MILLIPLEX panel) in aged mice after Urolithin A in diet; type: in vivo; conditions: 22 months old male C57BL/6J mice, 50 mg/kg/day in diet, 6 weeks; FIG. 6; p<0.05
Protocol: Urolithin A is admixed to AIN-93G Growing Rodent Diet (Research Diet, New Brunswick, NJ, USA) at a concentration of 0.5 g/per kg of diet, corresponding to a dose of 50 mg/kg/dy. Pellets with or without UA are given to 22 months old male C57BL/6J mice (Janvier, Saint Berthevin, France) for 6 weeks. A total of 32 mice are housed individually and randomized to 16 animals per group according to their exercise capacity. Animals who die spontaneously during the experiments are excluded from the calculations. These criteria were established before starting the experiments. Animals are euthanized after 6 weeks of treatment after an overnight fasting before collecting blood samples by the vena cava. Blood samples are centrifuged for 15 minutes at 1,500×g, and the plasma supernatant is transferred into a clean tube. Plasma is analyzed for cytokines using the MILLIPLEX MAP Mouse Cytokine/Chemokine Magnetic Bead Panel (MCYTOMAG-70K).
IL-10 is an important anti-inflammatory cytokine (Fiorentino D F, et al., IL-10 inhibits cytokine production by activated macrophages. J Immunol. 1991 Dec. 1; 147(11):3815-22; Fiorentino D F et al., IL-10 acts on the antigen-presenting cell to inhibit cytokine production by Th1 cells. J Immunol. 1991 May 15; 146(10):3444-51). […]

`O=c1oc2cc(O)ccc2c2ccc(O)cc12` [Urolithin A] was tested, and the “HSC population as % of total bone marrow cells and number of cells” value [1] was “increase”, the “HSC population as % of total bone marrow cells and number of cells” value ([1]; listed as urolithin A) was “significant increase” and the “LSK (c-Kit+, Lin-, Sca1+) progenitor cells as % of lineage negative cells” value ([1]; bone marrow, example plot FIG. 2C, control 3.16%) was 5.27%. The “% of LSK cells that are HSC+MPP1 (CD150+, CD48-)” value ([1]; example animal FIG. 3, untreated 53.1%) was 61.7%, the “% of HSC+MPP1 cells that are HSC (CD34-)” value ([1]; example animal FIG. 3, untreated 73.8%) was 81.7% and the “HSC + MPP1, % of undifferentiated cells (LSK cells)” value ([1]; group value n=3, untreated 40.75 ± 7.42%, p < 0.01) was 58.97 ± 11.30%. For the same molecule, the “ratio of IL-10 over IL-12 (p40) in plasma” value (IL-10 / IL-12 (p40)) was “significant increase”.
